Assay results as given in patent US20110085978A1, “NOVEL QUINOLINYLAMIDE DERIVATIVES USEFUL AS MODULATORS OF DOPAMINE AND SEROTONIN RECEPTORS” (NeuroSearch A/S, priority 2008, published 2011).

Test system: MK801 induced hyperactivity in female NMRI mice
Test: MK801 induced hyperactivity
Assay type: in vivo
Details: test compound subcutaneously 30 minutes before test start at 3, 10, 30 mg/kg, MK801 0.2 mg/kg ip
Procedure: Female NMRI mice (Taconic M&B, P.O. box 1079, DK-8680 Ry, Denmark) are kept in a ventilated closed rack (Scantainer, Scanbur Ltd., Denmark) at constant temperature (21° C.) and humidity (60-70%) with a 7:00 a.m light/7:00 p.m dark cycle. Food (altromin rat pellets) and water were available ad libitum.
Experiments were conducted during daytime in the light phase. The animals were habituated to the experimental room approximately 24 hours before start of the experiments.
MK801 induced hyperactivity was measured in automated activity frames (TSE Home Cage Activity Monitoring System, MoTil, TSE technical & scientific equipment GmbH, Germany) equipped with infrared photobeam emitters and sensors. MK801 was administered in a dose of 0.2 mg/kg ip immediately before test start.
Test compound was pretreated subcutaneously 30 minutes before test start at the following doses 3, 10, 30 mg/kg in a dose volume of 10 ml/kg.

Row | SMILES | Minimal Effective Dose (M.E.D) that significantly reduces MK801 induced hyperactivity
1 | O=C(CCCCN1CCC(c2ccccc2)CC1)Nc1ccc2ncccc2c1 [Compound A4, 5-(4-Phenyl-piperidin-1-yl)-pentanoic acid quinolin-6-ylamide] | 10 mg/kg
2 | COc1ccccc1N1CCN(CCCCC(=O)Nc2ccc3ncccc3c2)CC1 [Compound A3, 5-[4-(2-Methoxy-phenyl)-piperazin-1-yl]-pentanoic acid quinolin-6-ylamide] | 10 mg/kg
